Measured values published in PubChem BioAssay AID328 (DTP/NCI, 2004).
Where “and” joins values, the source holds several entries; their conditions need not be identical. Identical values can stand only once. Inconclusive results and toxic doses are left out.

Tested on: BDF1 mice, P388 leukemia ip, median survival T/C
Test: NCI In Vivo Anticancer Drug Screen. Data for tumor model P388 Leukemia (intraperitoneal) in B6D2F1 (BDF1) mice
Details: endpoint: median survival time, higher = longer survival
Procedure, shortened: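 Mice carrying the transplantable tumour receive compound or vehicle. Survival is followed in each arm, and the treated measure is divided by the vehicle measure.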

[1] = dose: 100.0 mg/kg/injection, schedule: Q01DX001 (ip), vehicle: saline with Tween-80
[2] = dose: 400.0 mg/kg/injection, schedule: Q01DX001 (ip), vehicle: saline with Tween-80
[3] = dose: 6.25 mg/kg/injection, schedule: Q01DX009 (ip), vehicle: saline with Tween-80
[4] = dose: 12.5 mg/kg/injection, schedule: Q01DX009 (ip), vehicle: saline with Tween-80
[5] = dose: 50.0 mg/kg/injection, schedule: Q01DX009 (ip), vehicle: saline with Tween-80
[6] = dose: 100.0 mg/kg/injection, schedule: Q01DX009 (ip), vehicle: saline with Tween-80
[7] = dose: 200.0 mg/kg/injection, schedule: Q01DX009 (ip), vehicle: saline with Tween-80
[8] = dose: 132.0 mg/kg/injection, schedule: Q04DX003 (ip), vehicle: saline
[9] = dose: 200.0 mg/kg/injection, schedule: Q04DX003 (ip), vehicle: saline
[10] = dose: 300.0 mg/kg/injection, schedule: Q04DX003 (ip), vehicle: saline
[11] = dose: 100.0 mg/kg/injection, schedule: Q04DX003 (ip), vehicle: saline with Tween-80
[12] = dose: 200.0 mg/kg/injection, schedule: Q04DX003 (ip), vehicle: saline with Tween-80
[13] = dose: 400.0 mg/kg/injection, schedule: Q04DX003 (ip), vehicle: saline with Tween-80
[14] = dose: 400.0 mg/kg/injection, schedule: Q01DX009 (ip), vehicle: saline with Tween-80
[15] = dose: 25.0 mg/kg/injection, schedule: Q01DX009 (ip), vehicle: saline
[16] = dose: 50.0 mg/kg/injection, schedule: Q01DX009 (ip), vehicle: saline
[17] = dose: 100.0 mg/kg/injection, schedule: Q01DX009 (ip), vehicle: saline
[18] = dose: 25.0 mg/kg/injection, schedule: Q01DX009 (ip), vehicle: saline with Tween-80

COc1cc(/C=N/N=C(\N)N[N+](=O)[O-])cc(OC)c1OC
T/C [1]: 90 % of control
T/C (dose: 200.0 mg/kg/injection, schedule: Q01DX001 (ip), vehicle: saline with Tween-80): 90 % of control
T/C [2]: 90 % of control

CN(C)c1ccc(/C=C/c2ccnc3ccc(I)cc23)cc1
T/C [3]: 96 % of control
T/C [4]: 119 % of control
T/C [5]: 116 % of control

CC(C)CCN(CCC(C)C)CC(O)c1cc(-c2ccc(C(F)(F)F)cc2)nc(-c2ccc(C(F)(F)F)cc2)c1 (stereo not given)
T/C [5]: 113 % of control
T/C [6]: 106 % of control
T/C [7]: 113 % of control

CS(=O)(=O)Nc1ccc(Nc2c3ccccc3nc3cc(Cl)ccc23)cc1
T/C (dose: 9.6 mg/kg/injection, schedule: Q04DX003 (ip), vehicle: Klucel (hydroxypropylcellulose) (HPC)): 100 % of control
T/C (dose: 14.0 mg/kg/injection, schedule: Q04DX003 (ip), vehicle: Klucel (hydroxypropylcellulose) (HPC)): 104 % of control
T/C [8]: 260 % of control and 195 % of control
T/C [9]: 272 % of control and 205 % of control
T/C [10]: 259 % of control

Cn1c(=O)c2nc(-c3ccc(Cl)c(Cl)c3)c(-c3ccc(Cl)c(Cl)c3)nc2n(C)c1=O
T/C (dose: 3.13 mg/kg/injection, schedule: Q01DX001 (ip), vehicle: saline with Tween-80): 100 % of control
T/C (dose: 6.25 mg/kg/injection, schedule: Q01DX001 (ip), vehicle: saline with Tween-80): 101 % of control
T/C (dose: 12.5 mg/kg/injection, schedule: Q01DX001 (ip), vehicle: saline with Tween-80): 99 % of control
T/C (dose: 25.0 mg/kg/injection, schedule: Q01DX001 (ip), vehicle: saline with Tween-80): 90 % of control and 101 % of control
T/C (dose: 50.0 mg/kg/injection, schedule: Q01DX001 (ip), vehicle: saline with Tween-80): 107 % of control
T/C [1]: 87 % of control
T/C [2]: 96 % of control

CCCCC(CC)C1NCCO1 (stereo not given)
T/C [5]: 103 % of control
T/C [11]: 110 % of control
T/C [7]: 92 % of control
T/C [12]: 115 % of control
T/C [13]: 115 % of control

CCOC(=O)c1c(C)cc(C)nc1[S][Sn]([Br])([Br])[S]c1nc(C)cc(C)c1C(=O)OCC
T/C [5]: 97 % of control
T/C [6]: 103 % of control
T/C [7]: 106 % of control

COC(=O)c1ccc(COc2ccc([N+](=O)[O-])cc2Cl)cc1
T/C (dose: 44.0 mg/kg/injection, schedule: Q01DX009 (ip), vehicle: saline with Tween-80): 90 % of control
T/C (dose: 66.0 mg/kg/injection, schedule: Q01DX009 (ip), vehicle: saline with Tween-80): 90 % of control
T/C [6]: 90 % of control
T/C (dose: 150.0 mg/kg/injection, schedule: Q01DX009 (ip), vehicle: saline with Tween-80): 86 % of control
T/C (dose: 176.0 mg/kg/injection, schedule: Q04DX003 (ip), vehicle: saline with Tween-80): 100 % of control
T/C [7]: 115 % of control
T/C (dose: 264.0 mg/kg/injection, schedule: Q04DX003 (ip), vehicle: saline with Tween-80): 100 % of control
T/C [14]: 105 % of control
T/C [13]: 90 % of control

CCOC(=O)C[n+]1ccccc1
T/C [15]: 100 % of control
T/C [16]: 118 % of control
T/C (dose: 50.0 mg/kg/injection, schedule: Q04DX003 (ip), vehicle: saline with Tween-80): 90 % of control
T/C (dose: 75.0 mg/kg/injection, schedule: Q04DX003 (ip), vehicle: saline): 104 % of control
T/C [17]: 90 % of control
T/C [11]: 90 % of control
T/C (dose: 150.0 mg/kg/injection, schedule: Q04DX003 (ip), vehicle: saline): 109 % of control

O=C(CN1CCOCC1)Nc1nc(-c2ccc(Cl)cc2)cs1
T/C (dose: 50.0 mg/kg/injection, schedule: Q01DX005 (ip), vehicle: saline with Tween-80): 110 % of control
T/C (dose: 100.0 mg/kg/injection, schedule: Q01DX005 (ip), vehicle: saline with Tween-80): 91 % of control

Cc1c(Cl)cccc1NC(=O)Nc1ccccc1
T/C (dose: 100.0 mg/kg/injection, schedule: Q04DX003 (ip), vehicle: DMSO): 103 % of control
T/C (dose: 200.0 mg/kg/injection, schedule: Q04DX003 (ip), vehicle: DMSO): 100 % of control
T/C (dose: 400.0 mg/kg/injection, schedule: Q04DX003 (ip), vehicle: DMSO): 107 % of control

NOc1ccc([N+](=O)[O-])cc1[N+](=O)[O-]
T/C (dose: 6.25 mg/kg/injection, schedule: Q01DX009 (ip), vehicle: Klucel (hydroxypropylcellulose) (HPC)): 115 % of control
T/C (dose: 12.5 mg/kg/injection, schedule: Q01DX009 (ip), vehicle: Klucel (hydroxypropylcellulose) (HPC)): 95 % of control
T/C (dose: 16.5 mg/kg/injection, schedule: Q01DX009 (ip), vehicle: Klucel (hydroxypropylcellulose) (HPC)): 113 % of control
T/C (dose: 25.0 mg/kg/injection, schedule: Q01DX009 (ip), vehicle: Klucel (hydroxypropylcellulose) (HPC)): 103 % of control and 113 % of control

O=C(O)c1ccc(=O)oc1
T/C [4]: 108 % of control
T/C [18]: 99 % of control and 100 % of control
T/C [5]: 108 % of control
T/C [6]: 124 % of control
T/C [7]: 124 % of control

C[C@]12CC[C@H](OC3OC(CO)C(O)C(O)C3O)C[C@H]1CC[C@@H]1[C@@H]2CC[C@]2(C)[C@@H](C3=CCOC3=O)CC[C@]12O (stereo not given in full)
T/C (dose: 0.1 mg/kg/injection, schedule: Q01DX010 (ip), vehicle: saline): 110 % of control
T/C (dose: 0.2 mg/kg/injection, schedule: Q01DX010 (ip), vehicle: saline): 105 % of control
T/C (dose: 0.25 mg/kg/injection, schedule: Q01DX010 (ip), vehicle: saline): 100 % of control
T/C (dose: 0.4 mg/kg/injection, schedule: Q01DX010 (ip), vehicle: saline): 105 % of control
T/C (dose: 0.5 mg/kg/injection, schedule: Q01DX010 (ip), vehicle: saline): 100 % of control
T/C (dose: 0.8 mg/kg/injection, schedule: Q01DX010 (ip), vehicle: saline): 100 % of control
T/C (dose: 1.0 mg/kg/injection, schedule: Q01DX010 (ip), vehicle: saline): 100 % of control

O=S(=O)(c1ccccc1)N1CN2CCN(C2)C1
T/C [5]: 107 % of control
T/C [6]: 124 % of control

CC1(C)N=C(N)N=C(N)N1c1ccc(OCC(=O)Nc2ccc(S(=O)(=O)F)cc2)c(Cl)c1
T/C (dose: 44.0 mg/kg/injection, schedule: Q04DX003 (ip), vehicle: saline): 113 % of control
T/C [16]: 190 % of control
T/C (dose: 100.0 mg/kg/injection, schedule: Q01DX008 (ip), vehicle: saline): 195 % of control
T/C [17]: 205 % of control
T/C [8]: 166 % of control and 200 % of control
T/C (dose: 200.0 mg/kg/injection, schedule: Q01DX008 (ip), vehicle: saline): 200 % of control
T/C [9]: 161 % of control and 215 % of control
T/C [10]: 245 % of control and 152 % of control

COc1cc2c(cc1OC)C1C(=CCC3c4cc(OC)c(OC)cc4CC[N+]31C)C=C2 (stereo not given)
T/C [3]: 95 % of control
T/C [4]: 104 % of control
T/C [18]: 116 % of control

O=C(NS(=O)(=O)c1ccc(Cl)cc1)c1ccccc1
T/C [4]: 99 % of control
T/C [18]: 100 % of control and 109 % of control
T/C [5]: 103 % of control and 120 % of control
T/C [6]: 100 % of control
T/C [7]: 90 % of control

Cc1cccc(NC(=O)Nc2ccc(Oc3ccccc3Cl)c(S(=O)(=O)O)c2)c1
T/C [15]: 90 % of control
T/C [16]: 90 % of control
T/C [17]: 90 % of control

COc1c2occc2c(CC(O)C(C)(C)O)c2ccc(=O)oc12 (stereo not given)
T/C (dose: 43.8 mg/kg/injection, schedule: Q01DX009 (ip), vehicle: Klucel (hydroxypropylcellulose) (HPC)): 103 % of control
T/C (dose: 87.5 mg/kg/injection, schedule: Q01DX009 (ip), vehicle: Klucel (hydroxypropylcellulose) (HPC)): 92 % of control
T/C (dose: 175.0 mg/kg/injection, schedule: Q01DX009 (ip), vehicle: Klucel (hydroxypropylcellulose) (HPC)): 90 % of control

Clc1ccc(CNc2ncnc3[nH]ncc23)cc1Cl
T/C [4]: 100 % of control
T/C [18]: 100 % of control
T/C [5]: 100 % of control

O=C(NC1CCOC1=O)OCc1ccccc1 (stereo not given)
T/C [5]: 100 % of control
T/C [6]: 100 % of control
T/C [7]: 100 % of control
T/C [14]: 98 % of control

CC1=CC=CC(=O)C1(C)C(Cl)Cl (stereo not given)
T/C [11]: 110 % of control
T/C [12]: 115 % of control
T/C [13]: 120 % of control

CCCCN(CCCC)CCC(O)c1cc(-c2ccc(Cl)c(Cl)c2)nc2c(Cl)cc(Cl)cc12 (stereo not given)
T/C [5]: 99 % of control
T/C [6]: 110 % of control

C=CCCCCCC/C=C\CCCCC
T/C (dose: 50.0 mg/kg/injection, schedule: Q01DX010 (ip), vehicle: alcohol): 104 % of control

Nc1ncc([N+](=O)[O-])c(Cl)n1
T/C [5]: 103 % of control
T/C [6]: 111 % of control
